Measurements published in US20120083522A1, “MODULATION OF INFLAMMATORY RESPONSES BY FACTOR XI” (Isis Pharmaceuitcals, inc., priority 2009, published 2012).

Columns and labels:
[1] = Tolerability in Sprague-Dawley rats: kidney function (Example 19); type: in vivo; conditions: Sprague Dawley rats; for urine protein/creatinine ratio, After: after 50 mg/kg s.c. twice per week for 6 weeks; for urine protein/creatinine ratio, Before: before antisense oligonucleotide treatment
From the text: (§1) Urine samples were taken before the start of treatment.

[2] = Tolerability in Sprague-Dawley rats: body and organ weight (Example 19); type: in vivo; conditions: 50 mg/kg s.c. twice per week for 6 weeks, change over weight at start of study
From the text: as §1
The body weights are presented in Table 78 and are expressed as a percent change over the weights taken at the start of the study.

[3] = test system: human Factor XI mRNA; assay: Dose-dependent inhibition in HepB3 cells, electroporation (Example 7); type: cell-based; conditions: approx. 16 h
Procedure: The gapmers were also transfected via electroporation and their dose dependent inhibition of human Factor XI mRNA was measured. Cells were plated at a density of 20,000 cells per well and transfected via electroporation with 41.15 nM, 123.457 nM, 370.37 nM, 1111.11 nM, 3333.33 nM, and 10,000 nM concentrations of antisense oligonucleotide, as specified in Table 15. After a treatment period of approximately 16 hours, RNA was isolated from the cells and human Factor XI mRNA levels were measured by quantitative real-time PCR. Human Factor XI primer probe set RTS 2966 was used to measure mRNA levels. Factor XI mRNA levels were adjusted according to total RNA content, as measured by RIBOGREEN®. Results are presented as percent inhibition of human Factor XI, relative to untreated control cells.

[4] = test system: human Factor XI mRNA; assay: Dose-dependent inhibition in HepG2 cells, lipofectin (Example 5); type: cell-based; conditions: 16 hours
Procedure: Cells were plated at a density of 10,000 cells per well and transfected using lipofectin reagent with 2.34 nM, 4.69 nM, 9.375 nM, 18.75 nM, 37.5 nM, and 75 nM concentrations of antisense oligonucleotide, as specified in Table 11. After a treatment period of approximately 16 hours, RNA was isolated from the cells and human Factor XI mRNA levels were measured by quantitative real-time PCR. Human Factor XI primer probe set RTS 2966 was used to measure mRNA levels. Factor XI mRNA levels were adjusted according to total RNA content, as measured by RIBOGREEN®. Results are presented as percent inhibition of human Factor XI, relative to untreated control cells.

[5] = test system: human Factor XI mRNA; assay: Antisense inhibition in HepG2 cells by microwalk gapmers, 75 nM, lipofectin (Example 3); type: cell-based; conditions: HepG2 cells, 75 nM
Summary of the method: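 HepG2 cells (10,000 per well) were transfected with 75 nM gapmer using lipofectin and treated for about 24 h. Factor XI mRNA was quantified by real-time PCR, normalized to RiboGreen total RNA and expressed as percent inhibition versus untreated controls.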

[6] = oligonucleotides targeted to nucleobases 1275 to 1318 of SEQ ID NO: 1

For “416825 (antisense GCCCTTCATGTCTAGGTCCA; 5-10-5 gapmer, wing sugar chemistry not given here, further chemistry not given here) [compound 416825]”, the “urine protein/creatinine ratio, After” value [1] was 5.4, the “urine protein/creatinine ratio, Before” value [1] was 1.1 and the “Percent change in Body weight” value [2] was −18%. For the same substance, the “percent inhibition of human Factor XI mRNA” value ([3]; 41.15 nM) was 32%, the “percent inhibition of human Factor XI mRNA” value ([3]; 123.457 nM) was 40% and the “percent inhibition of human Factor XI mRNA” value ([3]; 370.37 nM) was 48%. The “percent inhibition of human Factor XI mRNA” value ([3]; 1111.11 nM) was 75%, the “percent inhibition of human Factor XI mRNA” value ([3]; 3333.33 nM) was 90% and the “percent inhibition of human Factor XI mRNA” value ([3]; 10000 nM) was 92%. The “percent inhibition of human Factor XI mRNA, relative to untreated control cells” value ([4]; 2.34 nM) was 4%, the “percent inhibition of human Factor XI mRNA, relative to untreated control cells” value ([4]; 4.69 nM) was 22% and the “percent inhibition of human Factor XI mRNA, relative to untreated control cells” value ([4]; 9.375 nM) was 39%. For the same substance, the “percent inhibition of human Factor XI mRNA, relative to untreated control cells” value ([4]; 18.75 nM) was 57%, the “percent inhibition of human Factor XI mRNA, relative to untreated control cells” value ([4]; 37.5 nM) was 79% and the “percent inhibition of human Factor XI mRNA, relative to untreated control cells” value ([4]; 75 nM) was 89%.
For “416838 (antisense GCAACCGGGATGATGAGTGC; 5-10-5 gapmer, wing sugar chemistry not given here, further chemistry not given here) [compound 416838]”, the “% inhibition of human Factor XI mRNA levels” value (“% inhibition” for short) ([5]; oligonucleotides targeted to nucleobases 1018 to 1042 of SEQ ID NO: 1) was 94%, the “urine protein/creatinine ratio, After” value [1] was 3.7 and the “urine protein/creatinine ratio, Before” value [1] was 1.2. For the same substance, the “Percent change in Body weight” value [2] was −23%, the “percent inhibition of human Factor XI mRNA” value ([3]; 41.15 nM) was 12% and the “percent inhibition of human Factor XI mRNA” value ([3]; 123.457 nM) was 9%. For the same substance, the “percent inhibition of human Factor XI mRNA” value ([3]; 370.37 nM) was 28%, the “percent inhibition of human Factor XI mRNA” value ([3]; 1111.11 nM) was 40% and the “percent inhibition of human Factor XI mRNA” value ([3]; 3333.33 nM) was 77%. The “percent inhibition of human Factor XI mRNA” value ([3]; 10000 nM) was 88%, the “percent inhibition of human Factor XI mRNA, relative to untreated control cells” value ([4]; 2.34 nM) was 21% and the “percent inhibition of human Factor XI mRNA, relative to untreated control cells” value ([4]; 4.69 nM) was 37%. The “percent inhibition of human Factor XI mRNA, relative to untreated control cells” value ([4]; 9.375 nM) was 50%, the “percent inhibition of human Factor XI mRNA, relative to untreated control cells” value ([4]; 18.75 nM) was 63% and the “percent inhibition of human Factor XI mRNA, relative to untreated control cells” value ([4]; 37.5 nM) was 74%. For the same substance, the “percent inhibition of human Factor XI mRNA, relative to untreated control cells” value ([4]; 75 nM) was 83%.
With “416850 (antisense TGCACAGTTTCTGGCAGGCC; 5-10-5 gapmer, wing sugar chemistry not given here, further chemistry not given here) [compound 416850]” the “% inhibition” value [5, 6] was 93%, the “urine protein/creatinine ratio, After” value [1] was 4.0 and the “urine protein/creatinine ratio, Before” value [1] was 1.0. The “Percent change in Body weight” value [2] was −33%, the “percent inhibition of human Factor XI mRNA” value ([3]; 41.15 nM) was 26% and the “percent inhibition of human Factor XI mRNA” value ([3]; 123.457 nM) was 38%. For the same substance, the “percent inhibition of human Factor XI mRNA” value ([3]; 370.37 nM) was 51%, the “percent inhibition of human Factor XI mRNA” value ([3]; 1111.11 nM) was 73% and the “percent inhibition of human Factor XI mRNA” value ([3]; 3333.33 nM) was 90%. For the same substance, the “percent inhibition of human Factor XI mRNA” value ([3]; 10000 nM) was 95%, the “percent inhibition of human Factor XI mRNA, relative to untreated control cells” value ([4]; 2.34 nM) was 24% and the “percent inhibition of human Factor XI mRNA, relative to untreated control cells” value ([4]; 4.69 nM) was 31%. The “percent inhibition of human Factor XI mRNA, relative to untreated control cells” value ([4]; 9.375 nM) was 49%, the “percent inhibition of human Factor XI mRNA, relative to untreated control cells” value ([4]; 18.75 nM) was 55% and the “percent inhibition of human Factor XI mRNA, relative to untreated control cells” value ([4]; 37.5 nM) was 70%. The “percent inhibition of human Factor XI mRNA, relative to untreated control cells” value ([4]; 75 nM) was 77%.
In the case of “416858 (antisense ACGGCATTGGTGCACAGTTT; 5-10-5 gapmer, wing sugar chemistry not given here, further chemistry not given here) [compound 416858]”, the “% inhibition” value [5, 6] is reported as 93%, the “urine protein/creatinine ratio, After” value [1] is reported as 4.4 and the “urine protein/creatinine ratio, Before” value [1] is reported as 0.9. For the same substance, the “Percent change in Body weight” value [2] was −21%, the “percent inhibition of human Factor XI mRNA” value ([3]; 41.15 nM) was 23% and the “percent inhibition of human Factor XI mRNA” value ([3]; 123.457 nM) was 45%. The “percent inhibition of human Factor XI mRNA” value ([3]; 370.37 nM) was 52%, the “percent inhibition of human Factor XI mRNA” value ([3]; 1111.11 nM) was 64% and the “percent inhibition of human Factor XI mRNA” value ([3]; 3333.33 nM) was 87%. For the same substance, the “percent inhibition of human Factor XI mRNA” value ([3]; 10000 nM) was 92%, the “percent inhibition of human Factor XI mRNA, relative to untreated control cells” value ([4]; 2.34 nM) was 11% and the “percent inhibition of human Factor XI mRNA, relative to untreated control cells” value ([4]; 4.69 nM) was 35%. For the same substance, the “percent inhibition of human Factor XI mRNA, relative to untreated control cells” value ([4]; 9.375 nM) was 46%, the “percent inhibition of human Factor XI mRNA, relative to untreated control cells” value ([4]; 18.75 nM) was 61% and the “percent inhibition of human Factor XI mRNA, relative to untreated control cells” value ([4]; 37.5 nM) was 75%. The “percent inhibition of human Factor XI mRNA, relative to untreated control cells” value ([4]; 75 nM) was 77%.
